Experimental data: US12297207B2, “Maytansinoid derivatives, conjugates thereof, and methods of use” (priority 2015, dated 2025)
Where two headings read alike, the source gives them in different places.

Legend:
C4-2 (PSMA+) cells = assay: In vitro cytotoxicity assay (CCK8 viability), C4-2 cells; assay type: cell-based
Procedure: (§1) In this Example, the ability of various antibody-drug conjugates or their associated payloads to kill antigen-expressing tumor cells in vitro was assessed.
(§2) Ovcar3 (Muc16+) or C4-2 (PSMA+) cells were seeded in 96 well plates at 3000 (C42) cells per well in complete growth media and grown overnight. For cell viability curves, serially diluted conjugates or payloads were added to the cells at final concentrations ranging from 300 nM to 5 pM and incubated for 3 days. To measure viability, cells were incubated with CCK8 (Dojindo) for the final 1-3 hours and the absorbance at 450 nm (OD450) was determined on a Victor (Perkin Elmer). Background OD450 levels determined from digitonin ([…]) treated cells were subtracted from all wells and viability is expressed as a percentage of the untreated controls. IC50 values were determined from a four-parameter logistic equation over a 10-point response curve (GraphPad Prism). All conjugate curves and IC50 values are corrected for payload equivalents.

Ovcar3 (Muc16+) cells = assay: In vitro cytotoxicity assay (CCK8 viability), Ovcar3 cells; assay type: cell-based
Procedure: as §1, §2

[1] = tested on: T47D ductal carcinoma line (PRLR+); assay: In vitro cytotoxicity assay (CellTiter-Glo), T47D cells; assay type: cell-based, human; conditions: for IC50: 5 days, corrected for payload equivalents, read-out: IC50 (cytotoxicity of T47D cells); for maximum percent killing: T47D cells
Procedure: The present example provides cytotoxicity assays for conjugates provided herein. To evaluate the ability of anti-PRLR antibodies conjugated with 63, 60, 77, and 78 to kill a PRLR expressing cell line, an in vitro cytotoxicity assay using a T47D ductal carcinoma line (ATCC, #HTB-133), which was previously determined to express >27,000 copies of human PRLR at its cell surface, was utilized.
For the assay, T47D cells were seeded onto white 96 well plates at 2,000 cells/well in media containing DMEM supplemented with 10% FBS, NEAA, and pencillin/streptomycinin (complete media). They were grown overnight at 37° C. in 5% CO2. To determine cell viability curves, the following day antibody drug conjugates, unconjugated antibodies, or free payloads were added to the cells at final serial dilutions ranging from 100 nM to 0.01 nM in complete medium and then incubated for an additional 5 days. Luciferase activity was detected after the addition of CellTiter-Glo™ reagent (Promega, G7571) to each well, which contains reagents to lyse the remaining viable cells to release their ATP, ATPase inhibitors to prevent degradation of the ATP, as well as luciferin and luciferase to catalyse the luminescent reaction. Viable cells prior to addition of CellTiter-Glo will be the only source of ATP since the dead cells in culture will not synthesis ATP and any of their released ATP will be destroyed via endogenous ATPases. Relative light units (RLUs) were measured on a Victor luminometer (PerkinElmer) and the results were determined using a four-parameter logistic equation over a 10-point response curve (GraphPad Prism). All measured values and calculated IC50 values were corrected for payload equivalents. All IC50 values are expressed in nM concentration and percent kill is reported for the highest concentration tested.

[2] = biological target: T1, human PRLR extracellular domain (hPRLR-MMH) (Homo sapiens, UniProt P16471); assay: Surface plasmon resonance (Biacore 3000) binding kinetics; conditions: 25° C.
T1 construct: human PRLR extracellular domain expressed with a C-terminal myc-myc-hexahistidine tag; myc-myc-hexahistidine (MMH) (C); made in house
T1 sequence (P16471 25-234 limits assumed): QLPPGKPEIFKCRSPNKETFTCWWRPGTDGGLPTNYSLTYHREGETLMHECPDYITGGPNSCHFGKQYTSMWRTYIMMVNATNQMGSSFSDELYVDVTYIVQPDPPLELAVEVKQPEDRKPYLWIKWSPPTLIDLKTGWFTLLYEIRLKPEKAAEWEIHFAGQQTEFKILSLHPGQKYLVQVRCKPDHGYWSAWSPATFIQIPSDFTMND
Procedure: Equilibrium dissociation constants (KD values) for human PRLR binding to purified anti-PRLR antibodies that were either unmodified H1H6958N2, PRLR-Q, and PRLR-Q-63 were determined using a real-time surface plasmon resonance biosensor using a Biacore 3000 instrument. The Biacore sensor surface was first derivatized by amine coupling with a monoclonal mouse anti-human Fc antibody (GE, #BR-1008-39) to capture anti-PRLR monoclonal antibodies. All binding studies were performed in 0.01M HEPES pH 7.4, 0.15M NaCl, 3 mM EDTA, and 0.05% v/v Surfactant Tween-20 (HBS-ET running buffer) at 25° C. and 37° C. Different concentrations of human PRLR extracellular domain expressed with a C-terminal myc-myc-hexahistidine tag (hPRLR-MMH; SEQ ID NO: 401 as described in patent application WO 2015026907 A1), in HBS-ET running buffer ([…]) were injected over the anti-PRLR antibody captured surface for 4 minutes at a flow rate of 50 μL/minute and their dissociation in HBS-ET running buffer was monitored for 8 minutes. Kinetic association rate constant (ka) and dissociation rate constant (kd) were determined by fitting the real-time sensorgrams to a 1:1 binding model using Scrubber 2.0c curve fitting software. Binding dissociation equilibrium constants (KD) and dissociative half-lives (t½) were calculated from the kinetic rate constants as: […]

[3] = Table 2, payloads only, read-out: C4-2 IC50
[4] = Table 5, payloads only, read-out: C4-2 IC50
[5] = Table 2, payloads only, read-out: Ovcar3 IC50
[6] = Table 5, payloads only, read-out: Ovcar3 IC50
[7] = C4-2 cells, 3 days, conjugate values corrected for payload equivalents, read-out: IC50
[8] = Ovcar-3 cells, 3 days, conjugate values corrected for payload equivalents, read-out: IC50

Row | Molecule | C4-2 % kill (C4-2 (PSMA+) cells; Table 2, payloads only) | IC50 (C4-2 (PSMA+) cells; [3]) | C4-2 % kill (C4-2 (PSMA+) cells; Table 5, payloads only) | IC50 (C4-2 (PSMA+) cells; [4]) | Ovcar3 % kill (Ovcar3 (Muc16+) cells; Table 2, payloads only) | IC50 (Ovcar3 (Muc16+) cells; [5]) | Ovcar3 % kill (Ovcar3 (Muc16+) cells; Table 5, payloads only) | IC50 (Ovcar3 (Muc16+) cells; [6]) | IC50 (C4-2 (PSMA+) cells; [7]) | IC50 (Ovcar3 (Muc16+) cells; [8]) | IC50 [1] | maximum percent killing ([1]; highest concentration tested) | T47D % kill ([1]; Table 5, payloads only, highest concentration tested) | ka [2] | kd [2] | 100 nM hPRLR-MMH Bound (RU) ([2]; antibody captured on anti-human Fc surface) | Kd ([2]; calculated from kinetic rate constants, read-out: KD) | Kd ([2]; read-out: KD value)
1 | COc1cc2cc(c1Cl)N(C)C(=O)C[C@H](OC(=O)[C@H](C)N(C)C(=O)c1ccc(N)cc1C(F)(F)F)[C@]1(C)O[C@H]1[C@H](C)[C@@H]1C[C@@](O)(NC(=O)O1)[C@H](OC)/C=C/C=C(\C)C2 [Compound 31, Maytansin-N-methyl-L-alanine-(2-trifluoromethyl-4-amino)benzamide] | 82% | 0.1 nM | 82% | 0.1 nM | 93% | 0.04 nM | 93% | 0.04 nM | – | – | – | – | – | – | – | – | – | –
2 | COc1cc(N)ccc1C(=O)N(C)[C@@H](C)C(=O)O[C@H]1CC(=O)N(C)c2cc(cc(OC)c2Cl)C/C(C)=C/C=C/[C@@H](OC)[C@@]2(O)C[C@H](OC(=O)N2)[C@@H](C)[C@@H]2O[C@@]12C [Compound 33, Maytansin-N-methyl-L-alanine-(2-methoxy-4-amino)benzamide] | 86% | 0.45 nM | 86% | 0.45 nM | 93% | 0.2 nM | 93% | 0.2 nM | 0.55 nM | 0.11 nM | – | – | – | – | – | – | – | –
3 | COc1cc2cc(c1Cl)N(C)C(=O)C[C@H](OC(=O)[C@H](C)N(C)C(=O)c1ccc(N)c(C(F)(F)F)c1)[C@]1(C)O[C@H]1[C@H](C)[C@@H]1C[C@@](O)(NC(=O)O1)[C@H](OC)/C=C/C=C(\C)C2 [Compound 35, Maytansin-N-methyl-L-alanine-N-(3-trifluoromethyl-4-amino)benzamide] | 84% | 0.004 nM | 84% | 0.004 nM | 93% | < 0.01 nM | 93% | < 0.01 nM | – | – | – | – | – | – | – | – | – | –
4 | COc1cc2cc(c1Cl)N(C)C(=O)C[C@H](OC(=O)[C@H](C)N(C)C(=O)c1ccc(N)cc1F)[C@]1(C)O[C@H]1[C@H](C)[C@@H]1C[C@@](O)(NC(=O)O1)[C@H](OC)/C=C/C=C(\C)C2 [Compound 29, Maytansin-N-methyl-L-alanine-(2-fluoro-4-amino)benzamide] | 83% | 0.27 nM | 83% | 0.27 nM | 93% | 0.13 nM | 93% | 0.13 nM | – | – | 0.07 nM | 67% | 67% | – | – | – | – | –
5 | COc1cc2cc(c1Cl)N(C)C(=O)C[C@H](OC(=O)[C@H](C)N(C)C(=O)c1ccc(N)cc1)[C@]1(C)O[C@H]1[C@H](C)[C@@H]1C[C@@](O)(NC(=O)O1)[C@H](OC)/C=C/C=C(\C)C2 [Compound 27, Maytansin-N-methyl-L-alanine-4-aminobenzamide] | 84% | 0.2 nM | 84% | 0.2 nM | 92% | 0.09 nM | 92% | 0.09 nM | 0.2 nM | 0.06 nM | 0.1 nM | 67% | – | – | – | – | – | –
6 | H1H6958N2 (antibody, V domains shown) VH: QVQLVESGGGVVQPGRSLRLSCGASGFTFRNYGMQWVRQGPGKGLEWVTLISFDGNDKYYADSVKGRFTISRDNSKNTLFLQMNSLRTEDTAVYYCARGGDFDYWGQGTLVTVSS VL: DIQMTQSPSSLSASVGDRVTITCRASQDIRKDLGWYQQKPGKAPKRLIYAASSLHSGVPSRFSGSGSGTEFTLTISSLQPEDFATYYCLQHNSYPMYTFGQGTKLEIK | – | – | – | – | – | – | – | – | – | – | – | – | – | 417000 M⁻¹ s⁻¹ | 0.000454 s⁻¹ | 38 RU | 1.09 nM | 1.09 nM
